Data: PMC6865181, “Role of L-Type Amino Acid Transporter 1 (LAT1) for the Selective Cytotoxicity of Sesamol in Human Melanoma Cells” (Molecules, 2019)
Read-outs that look alike come from different tables or passages of the source. Marks after values point to notes of the source that are not given here.

Key:
[1] = test system: Vero cells; assay: Antiproliferative effect, neutral red uptake assay, Vero cells; type: cell-based, African green monkey; conditions: Vero cells, 24 h exposure, neutral red; read-out: IC50 (cell viability)
Protocol: (§1) The SK-MEL-2 and Vero cells (at 5 × 10^4 cells/well) were seeded separately into 96-well plates. After the cells were exposed to the tested compounds (200 µL) for 24 h, neutral red (50 µg/mL) (Sigma-Aldrich, St. Louis, MO, USA) was incorporated into the cells for 2 h. The cells were then washed with ice-cold PBS and lysed using 0.33% HCl in isopropanol. The absorbances of neutral red were measured at 540 nm with a reference wavelength of 660 nm using a UV-microplate reader (Perkin Elmer, Waltham, MA, USA). […] The selective index was calculated from the ratio of the IC50 of Vero and SK-MEL-2 cells.

[2] = molecular target: T1, LAT1 (Homo sapiens, UniProt Q01650); assay: LAT1 function: competitive uptake of L-dopa in SK-MEL-2 cells; type: cell-based; conditions: SK-MEL-2, L-dopa 0.1 mM, 10 min
Protocol: (§2) SK-MEL-2 and Vero cells were seeded separately into 24-well plates at 2 × 10^5 cells/well for 24 h. The media was removed, and the cells pre-incubated with HBSS pH 7.4 for 10 min. The cells were used for the following experiments.
(§3) Sesamol was also investigated for its affinity to LAT1. […] Competitive uptake was performed for 10 min then the cells were washed twice with ice-cold PBS. The L-dopa was solubilized by 0.1 M HCl and the cell lysate (25 µL) was pipetted for protein determination. […] Intracellular and extracellular L-dopa was quantified by the HPLC assay. The L-dopa uptake was represented as the distribution volume of L-dopa in a cell to media ratio (C/M ratio) as calculated in Section 4.3.1.
The analysis was based on a BDS Hypersil C-18 column, (4.6 × 250 mm, 5 µm packing, Thermo Fisher Scientific, Waltham, MA, USA). The column temperature was set at 30 °C with a flow rate of 0.8 mL/min. The mobile phase for sesamol quantification was 70% methanol in water, vs. 20% methanol in water for L-dopa. […] The validated sesamol quantification conducted using sesamol spiked cell lysate with high selectivity and clear separation from the endogenous cell lysate as previously reported. The % bias and % precision was determined within and between days, each was maintained below 6%.

[3] = test system: LAT1; assay: LAT1 function: competitive uptake of L-dopa in Vero cells; type: cell-based, African green monkey; conditions: L-dopa 0.1 mM, 10 min
Protocol: as §2, §3
(§4) Quantitative analysis of sesamol and L-dopa were performed using a Shimadzu HPLC (LC-2030C-3D) with a UV photodiode array detector (DAD) (Kyoto, Japan). The analysis was based on a BDS Hypersil C-18 column, (4.6 × 250 mm, 5 µm packing, Thermo Fisher Scientific, Waltham, MA, USA). The column temperature was set at 30 °C with a flow rate of 0.8 mL/min. The mobile phase for sesamol quantification was 70% methanol in water, vs. 20% methanol in water for L-dopa. The respective detection wavelength and elution time for sesamol and L-dopa was 297 nm and 280 nm and 4.2 and 4.5 min. The validated sesamol quantification conducted using sesamol spiked cell lysate with high selectivity and clear separation from the endogenous cell lysate as previously reported. The % bias and % precision was determined within and between days, each was maintained below 6%.

[4] = molecular target: T1, LAT1; assay: cell-based; conditions: SK-MEL-2; sesamol 0.1 mM, uptake equilibrium 10 min
Protocol: as §2
(§5) Competitive inhibition of uptake of sesamol was done in both SK-MEL-2 and the Vero cells. […] The cells were washed twice with ice-cold PBS, solubilized in methanol, and centrifuged at 2400× g, at 4 °C for 20 min. The precipitated protein was re-solubilized by 0.1 M NaOH prior to protein determination. The sesamol content was quantified using HPLC assay. The cellular uptake of sesamol was calculated as per the C/M ratio.
as §4

[5] = stated in the introduction without reference; cited from earlier work
[6] = test system: SK-MEL-2 cells; assay: Antiproliferative effect, neutral red uptake assay, SK-MEL-2 cells; type: cell-based, human
Protocol: as §1

[7] = test system: LAT1; conditions: Vero cells; sesamol 0.1 mM, uptake equilibrium 10 min
Protocol: as §2, §5, §4

[8] = test system: SK-MEL-2 cells; assay: Uptake kinetics of sesamol at 37 °C and 4 °C in SK-MEL-2 cells; conditions: for Pd (sesamol passive diffusion) / Vmax (sesamol uptake) / Km: 1 min; for Km: read-out: Km (sesamol uptake)
Protocol: as §2
(§6) The cells were pre-incubated with HBSS pH 7.4 at 37 °C and at 4 °C both for 10 min. The cells were treated with sesamol (200 µL; range, 31.5 to 1,000 μM) and incubated under each condition for another 1 min, to exclude the influence of efflux or metabolism processes as per the previous report. The uptake process at 37 °C represented the total uptake of sesamol in the cells, including both carrier-mediated transport and passive transport; whereas the uptake process at 4 °C represented mainly passive transport.
(§7) The uptake kinetics was fitted using Michaelis-Menten kinetics (non-linear least square kinetics model) (r^2 > 0.90) Equation (1) that allowed estimation of Vmax, Km, and Pd values.
(§8) V = (Vmax × [S])/(Km + [S]) + Pd × [S](1)
(§9) V = uptake velocity at a certain amount of substrate (nmol/min/mg protein)
(§10) Vmax = maximum uptake velocity (nmol/min/mg protein)
(§11) [S] = concentration of sesamol at extracellular compartment (µM)
(§12) Km = concentration of sesamol at half of Vmax (µM)
(§13) Pd = passive lipoidal diffusion uptake rate (µL/min/mg protein)
(§14) The rate to reach total uptake clearance of carrier-mediated transport was obtained from the ratio of Vmax to Km (µL/min/mg protein). The total uptake clearance of the process (µL/min/mg protein) was obtained from (Vmax /Km) + Pd.

[9] = test system: Vero cells; assay: Uptake kinetics of sesamol at 37 °C and 4 °C in Vero cells; conditions: for Pd (sesamol passive diffusion) / Vmax (sesamol uptake): 1 min
Protocol: as §2, §6, §7, §8, §9, §10, §11, §12, §13, §14

[10] = test system: SK-MEL-2 cells; assay: Time-course of sesamol cellular uptake (distribution) in SK-MEL-2 cells; type: in vitro ADME, human
Protocol: (§15) The cells were used for the following experiments.
(§16) The cells were exposed to 1 mM (200 µL) sesamol and incubated at 37 °C at various times (0.5, 1, 3, 5, 10, and 15 min). The media was plated into 96-well plates prior to measuring the extracellular sesamol content by HPLC analysis. […] The sesamol content in 20 µL of cell lysate was quantified using HPLC assay as described in the analytical procedure.
(§17) The cellular uptake of sesamol was determined based on the sesamol content in cells (nmol/mg protein) to medium (nmol/µL) (expressed as C/M ratio, µL/mg protein). The linear regression of the C/M ratio from 0.5 to 3 min was performed (r^2 > 0.90); to give the initial distribution volume (µL/mg protein) from the y-intercept, and the initial uptake clearance (µL/min/mg protein) from the slope.

[11] = test system: Vero cells; assay: Time-course of sesamol cellular uptake (distribution) in Vero cells; type: in vitro ADME, African green monkey
Protocol: as §15, §16, §17

[12] = competitor (BCH, L-tyrosine, sesamol 1 mM; L-leucine, L-alanine 2 mM; melphalan 0.05 mM)
[13] = competitor at the concentration printed in the row
[14] = 1 mM sesamol, 37 °C, linear regression 0.5-3 min

T1 sequence (Q01650 whole entry): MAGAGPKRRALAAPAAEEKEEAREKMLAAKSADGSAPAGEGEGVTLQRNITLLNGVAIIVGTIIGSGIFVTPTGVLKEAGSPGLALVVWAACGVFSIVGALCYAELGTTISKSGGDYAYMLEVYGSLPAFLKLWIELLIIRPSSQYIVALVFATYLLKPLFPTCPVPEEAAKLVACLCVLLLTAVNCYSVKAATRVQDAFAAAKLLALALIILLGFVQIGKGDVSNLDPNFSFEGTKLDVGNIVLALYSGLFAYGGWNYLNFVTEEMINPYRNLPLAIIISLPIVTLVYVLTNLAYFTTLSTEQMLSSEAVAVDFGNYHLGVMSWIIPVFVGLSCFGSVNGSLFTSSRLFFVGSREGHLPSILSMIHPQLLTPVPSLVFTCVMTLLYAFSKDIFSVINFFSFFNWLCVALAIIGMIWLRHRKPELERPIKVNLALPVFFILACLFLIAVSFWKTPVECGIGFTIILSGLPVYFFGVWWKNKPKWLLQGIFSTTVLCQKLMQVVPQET
T1 sequence (P08195 102-630 partner): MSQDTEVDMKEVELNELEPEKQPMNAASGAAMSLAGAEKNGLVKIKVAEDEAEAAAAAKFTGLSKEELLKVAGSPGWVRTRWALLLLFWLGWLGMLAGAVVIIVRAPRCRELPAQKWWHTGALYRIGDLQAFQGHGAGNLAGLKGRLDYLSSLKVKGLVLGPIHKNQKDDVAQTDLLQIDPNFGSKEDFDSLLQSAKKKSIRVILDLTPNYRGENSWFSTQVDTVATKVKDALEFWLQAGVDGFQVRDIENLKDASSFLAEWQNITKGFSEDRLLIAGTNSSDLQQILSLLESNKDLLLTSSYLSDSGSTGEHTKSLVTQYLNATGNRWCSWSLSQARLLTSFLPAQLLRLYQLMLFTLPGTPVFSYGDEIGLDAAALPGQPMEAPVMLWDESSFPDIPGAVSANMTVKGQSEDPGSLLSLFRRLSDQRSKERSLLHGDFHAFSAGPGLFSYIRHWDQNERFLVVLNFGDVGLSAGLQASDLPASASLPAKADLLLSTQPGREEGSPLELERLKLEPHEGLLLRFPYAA

## Oc1ccc2c(c1)OCO2 [Sesamol]
[1]
  IC50: 6.7 ± 0.2 mM
[2]; [12]
  Percent Inhibition of L-Dopa Distribution Volume: 44%
[2]; [13]
  L-Dopa Distribution Volume in presence of the compound: 207.6 ± 31.5 µL/mg Protein
[3]; [12]
  Percent Inhibition of L-Dopa Distribution Volume: 33%
[3]; [13]
  L-Dopa Distribution Volume in presence of the compound: 103.9 ± 9.2 µL/mg Protein
[4]
  Sesamol Distribution Volume, control (no competitor): 0% (23.2 ± 2.1)^a µL/mg Protein
[5]
  logP: 1.29
[6]
  Selective Index: 3.4
[6]; SK-MEL-2, 24 h exposure, neutral red, read-out: IC50 (cell viability)
  IC50: 2 ± 0.1 mM
[7]
  Sesamol Distribution Volume, control (no competitor): 0% (17.9 ± 1.7)^a µL/mg Protein
[8]; 37 °C
  carrier-mediated uptake clearance in SK-MEL-2 cells relative to Vero cells: 3.4 fold
[8]; SK-MEL-2, 4 °C
  Pd (sesamol passive diffusion): 2.7 ± 0.1^a µL/min/mg
  Vmax (sesamol uptake): 0.3 ± 0.1^b nmol/min/mg
  Km: 26.8 ± 9.8 µM
[8]; SK-MEL-2, 37 °C
  Pd (passive diffusion of sesamol): 2.3 ± 0.2 µL/min/mg protein
  Vmax (carrier-mediated transport of sesamol): 4.2 ± 0.1 nmol/min/mg protein
  carrier-mediated transport as share of total uptake clearance: 89%
[8]; SK-MEL-2, 37 °C, sesamol alone
  Pd (sesamol passive diffusion): 2.3 ± 0.2^b µL/min/mg
  Vmax (sesamol uptake): 4.2 ± 0.1^a nmol/min/mg
  Km: 225 ± 19.3 µM
[9]; 4 °C
  Pd (sesamol passive diffusion): 2.4 ± 0.3^a µL/min/mg
  Vmax (sesamol uptake): 0.4 ± 0.1^b nmol/min/mg
[9]; 37 °C
  Pd (passive diffusion of sesamol): 2.1 ± 0.1 µL/min/mg protein
  Vmax (carrier-mediated transport of sesamol): 0.9 ± 0.0 nmol/min/mg protein
  carrier-mediated transport as share of total uptake clearance: 72%
[9]; 37 °C, sesamol alone
  Pd (sesamol passive diffusion): 2.1 ± 0.1^a µL/min/mg
  Vmax (sesamol uptake): 0.9 ± 0.0^a nmol/min/mg
[9]; read-out: Km (sesamol uptake), 4 °C, 1 min
  Km: 66.1 ± 20 µM
[9]; read-out: Km (sesamol uptake), 37 °C, sesamol alone, 1 min
  Km: 160 ± 18.4 µM
[10]; [14]
  initial distribution volume: 6.0 ± 0.4 µL/mg protein
  initial uptake clearance: 2.6 ± 0.1 µL/min/mg protein
[10]; 30 s
  suppression of sesamol uptake at 4 °C compared to 37 °C: 45%
[10]; 37 °C
  time at which sesamol uptake reached a steady state: approximately 10 min
[10]; 1 min
  suppression of sesamol uptake at 4 °C compared to 37 °C: 61%
[11]; [14]
  initial distribution volume: 5.7 ± 0.4 µL/mg protein
  initial uptake clearance: 1.3 ± 0.2 µL/min/mg protein
[11]; 30 s
  reduction in sesamol distribution volume at 4 °C compared to 37 °C: 33%
[11]; 37 °C
  time at which sesamol uptake reached a steady state: about 5 min
[11]; 1 min
  reduction in sesamol distribution volume at 4 °C compared to 37 °C: 23%
